What was measured:
[1] = Blood counts of mice after oral ingestion; format: in vivo; settings: single mouse, oral in water for 4 days; day 0 count 8.9-11.8
[2] = target: T1, hemoglobin (Homo sapiens, UniProt P68871); settings: relative to DPG; cited from earlier work
[3] = target: T1, hemoglobin; settings: pH 7.4 and 37 degrees C; cited from earlier work
[4] = Blood counts of mice after oral ingestion; format: in vivo; settings: single mouse, oral in water for 4 days, day 7; day 0 count 8.9-11.8
Text: Blood from mice that ingested ITPP or IHP in water (for 4 days) or water only was collected on day 0, 7 and 11, in order to assess any differences in the blood count (and the amount of erythropoietin in the sera) of treated and control mice. […] The amount of blood from the other mice was not sufficient to determine the blood count.

[5] = tested on: circulating RBC; assay: P50 shift of circulating RBC after oral administration in drinking water; format: in vivo, C57BL/6 mice
Description: In experiments conducted in vivo in which ITPP was administered orally, ITPP was dissolved in drinking (not deionized) water at a 20 g/L-concentration (=27 mM, pH 7.0) and offered for drinking ad libitum. A significant shift of the P50 value of circulating RBCs was observed.
Twelve C57BL/6 mice drank ITPP over 4 days (about 25 ml/24 hrs). Seven Control mice drank either pure water (three mice), or a solution of IHP (inositol hexaphosphate without the internal pyrophosphate rings) at the same concentration and pH as ITPP (4 mice). […] Blood was collected from the tail vein of the 12 C57BL/6 mice on day 0 (before treatment started), 1, 2, 4, 6, 7, 8, 10, 11 and 12, in order to measure P50 values. […] Oral application of ITPP caused significant right shifts of P50 (up to 31%) in mice.
The 12 mice were observed over 12 days, the P50 values of their circulating RBC were measured almost daily. […] It appears that all mice ingesting the aqueous solution of ITPP present a shift of the P50 value of their circulating RBC, albeit with individual differences. FIG. 8 illustrates the individual differences in the P50 shift induced in the mice by ingestion of the aqueous solution of ITPP.

[6] = Solubility of ITPP salts; format: physicochemical
Text: (§1) Alternatively, ITPP-Ca can be produced by the addition of equimolar amounts of CaCl2 with an aqueous solution of ITPP-Na. The resulting mixture gives ITPP-Ca, which contains NaCl as an impurity.

[7] = Toxicity of ITPP salts; settings: compared with the calcium salt / mixed salt
Text: as §1

T1 sequence (P68871 2-147 limits assumed): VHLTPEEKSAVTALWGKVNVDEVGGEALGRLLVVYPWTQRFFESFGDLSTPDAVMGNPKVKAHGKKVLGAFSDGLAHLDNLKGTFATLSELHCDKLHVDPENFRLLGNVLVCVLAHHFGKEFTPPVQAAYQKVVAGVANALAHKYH
T1 sequence (P69905 2-142 partner limits assumed): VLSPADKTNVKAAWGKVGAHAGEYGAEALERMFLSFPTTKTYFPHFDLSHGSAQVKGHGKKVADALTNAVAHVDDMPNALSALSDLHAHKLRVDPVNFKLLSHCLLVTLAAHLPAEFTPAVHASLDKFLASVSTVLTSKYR

SMILES: O=P(O)(O)O[C@H]1[C@H](OP(=O)(O)O)[C@@H](OP(=O)(O)O)[C@H](OP(=O)(O)O)[C@@H](OP(=O)(O)O)[C@H]1OP(=O)(O)O [IHP, Inositol hexaphosphate, reference compound]
- RBC × 10^6/mm^3 [1]: 10.77 10^6/mm^3
- affinity to hemoglobin, higher than DPG [2]: 1000 fold
- P50 of hemoglobin increased up to [3]: ≤ 96.4 mm Hg
- RBC × 10^6/mm^3 (day 7) [4]: 9.6 10^6/mm^3
- right shift of P50 ([5]; oral, 20 g/L (27 mM) in drinking water over 4 days): complete absence of shift
- P50 day 7, % ([5]; single mouse, oral in water for 4 days, day 7): 3%
- P50 day 10, % ([5]; single mouse, oral in water for 4 days, day 10): 0%

SMILES: O=P1([O-])OC2C3OP(=O)([O-])OP(=O)([O-])OC3C3OP(=O)([O-])OP(=O)([O-])OC3C2OP(=O)([O-])O1.[Ca+2].[Ca+2].[Ca+2] (stereo not drawn) [pure calcium salt of ITPP, Calcium Salt of myo-inositol 1,6:2,3:4,5-tripyrophosphate]
- solubility [6]: relatively insoluble

SMILES: O=P1([O-])OC2C3OP(=O)([O-])OP(=O)([O-])OC3C3OP(=O)([O-])OP(=O)([O-])OC3C2OP(=O)([O-])O1.[Na+].[Na+].[Na+].[Na+].[Na+].[Na+] (stereo not drawn) [pure sodium salt, myo-inositol tripyrophosphate]
- toxicity [7]: relatively more toxic

From US20110294732A1, “ERYTHROPOLETIN COMPLEMENTATION OR REPLACEMENT” (Universite De Strasbourg, priority 2007, published 2011)
